Data as given in patent publication US20210405025A1, “IDENTIFYING COMPOUNDS FOR TREATING CANCER AND USE THEREOF” (THE UAB RESEARCH FOUNDATION, priority 2018, published 2021).
Where a name gives a salt, the structure may show the parent alone.

The compounds below were run on relapsed AML cells (assay: Drug sensitivity assay, 1,536-well, 3-day culture with individual approved drugs at 10 μM, viability by alamarBlue). Conditions: not given.
Format: cell-based, human
Outline: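 FACS-sorted viable myeloid blasts from thawed AML samples, 4,000-4,500 cells per 5 μL well, cultured in IMDM with 15% BIT, SCF, FLT3L, IL-3, G-CSF. Drugs added per well; after three days percentage of live cells measured to gauge killing.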

**Q.** Which “#Cases >70% cell death” value does the source give for `COC(=O)C1=C(C)NC(C)=C(C(=O)OCCCN2CCC(c3ccccc3)(c3ccccc3)CC2)[C@@H]1c1cccc([N+](=O)[O-])c1` [DEXNIGULDIPINE] here?
**A.** 8

Same assay, conditions: number of relapsed AML cases out of 18 tested with >70% cell death; 10 μM, 3-day culture

**Q.** With `COc1cccc2c1C(=O)c1c(O)c3c(c(O)c1C2=O)C[C@@](O)(C(=O)CO)C[C@@H]3O[C@H]1C[C@H](N)[C@@H](O)[C@H](C)O1` [EPIRUBICIN] as the compound, how does the “#Cases >70% cell death” value read?
**A.** 18

**Q.** For `CCCCOc1ccc(CC(=O)NO)cc1` [BUFEXAMAC], which “#Cases >70% cell death” value is on record?
**A.** 9

**Q.** For `O=C1CC2(CCCC2)CC(=O)N1CCNCC1COc2ccccc2O1` (stereo not shown) [BINOSPIRONE MESYLATE], which “#Cases >70% cell death” value is on record?
**A.** 1

**Q.** With `CN(C)CC(=O)N1CCC(c2ccc(NC(=O)c3nc(C#N)c[nH]3)c(C3=CCCCC3)c2)CC1` [JNJ-28312141] as the compound, how does the “#Cases >70% cell death” value read?
**A.** 7

**Q.** Which “#Cases >70% cell death” value does the source give for `CC[C@@H]1/C=C(\C)C[C@H](C)C[C@H](OC)[C@H]2O[C@@](O)(C(=O)C(=O)N3CCCC[C@H]3C(=O)O[C@H](/C(C)=C/[C@@H]3CC[C@H](Cl)[C@H](OC)C3)[C@H](C)[C@@H](O)CC1=O)[C@H](C)C[C@@H]2OC` [PIMECROLIMUS] here?
**A.** 2

**Q.** For `CC(=O)N1CCN(c2ccc(OCC3COC(Cn4ccnc4)(c4ccc(Cl)cc4Cl)O3)cc2)CC1` (stereo not shown) [KETOCONAZOLE], which “#Cases >70% cell death” value is on record?
**A.** 5

**Q.** For `CCCOc1ccc2nc(NC(=O)OC)[nH]c2c1` [OXIBENDAZOLE], which “#Cases >70% cell death” value is on record?
**A.** 5

**Q.** `COc1cccc(-c2cc(F)ccc2[C@H]2Cc3nc(N)nc(C)c3C(=O)N2)n1` [HSP-990] was tested. Which “#Cases >70% cell death” value did it give?
**A.** 17

**Q.** How did the “#Cases >70% cell death” value turn out when `Cc1ccc2nc(N)[nH]c(=O)c2c1Sc1ccncc1` [NOLATREXED DIHYDROCHLORIDE] was run?
**A.** 1

**Q.** `Nc1ccncc1` [4-AMINOPYRIDINE] was tested. Which “#Cases >70% cell death” value did it give?
**A.** 1

**Q.** With `CCCCc1oc2ccc(NS(C)(=O)=O)cc2c1C(=O)c1ccc(OCCCN(CCCC)CCCC)cc1` [DRONEDARONE] as the compound, how does the “#Cases >70% cell death” value read?
**A.** 12

**Q.** `C[C@H]1C[C@H]2[C@@H]3CCC4=CC(=O)C=C[C@]4(C)[C@@]3(F)[C@@H](O)C[C@]2(C)[C@@]1(O)C(=O)CO` [BETAMETHASONE] was tested. Which “#Cases >70% cell death” value did it give?
**A.** 1

**Q.** `O=C(/C=C/c1cccnc1)NCCCCC1CCN(C(=O)c2ccccc2)CC1` [APO-866] was tested. Which “#Cases >70% cell death” value did it give?
**A.** 17

**Q.** How did the “#Cases >70% cell death” value turn out when `CC1=C(/C=C/C(C)=C/C=C/C(C)=C/C(=O)Nc2ccc(O)cc2)C(C)(C)CCC1` [FENRETINIDE] was run?
**A.** 9

**Q.** With `O=C(Nc1ccc([N+](=O)[O-])cc1Cl)c1cc(Cl)ccc1O` [NICLOSAMIDE] as the compound, how does the “#Cases >70% cell death” value read?
**A.** 1

**Q.** Which “#Cases >70% cell death” value does the source give for `CC[C@@H]([C@H](C)O)n1ncn(-c2ccc(N3CCN(c4ccc(OC[C@@H]5CO[C@@](Cn6cncn6)(c6ccc(F)cc6F)C5)cc4)CC3)cc2)c1=O` [POSACONAZOLE] here?
**A.** 6

**Q.** How did the “#Cases >70% cell death” value turn out when `CN(C)c1ccc(C(=C2C=CC(=[N+](C)C)C=C2)c2ccc(N(C)C)cc2)cc1` [GENTIAN VIOLET] was run?
**A.** 18

**Q.** Which “#Cases >70% cell death” value does the source give for BENZALKONIUM CHLORIDE here?
**A.** 15

**Q.** `CC(C)(C)c1cnc(CSc2cnc(NC(=O)C3CCNCC3)s2)o1` [BMS-387032] was tested. Which “#Cases >70% cell death” value did it give?
**A.** 18

**Q.** For `CN(C)c1ccc2nc3ccc(=[N+](C)C)cc-3sc2c1` [METHYLENE BLUE], which “#Cases >70% cell death” value is on record?
**A.** 18

**Q.** For `Nc1nc(F)nc2c1ncn2[C@@H]1O[C@H](CO)[C@@H](O)[C@@H]1O` [FLUDARABINE], which “#Cases >70% cell death” value is on record?
**A.** 16

**Q.** With `O=C(/C=C/c1ccc(CN(CCO)CCc2c[nH]c3ccccc23)cc1)NO` [LAQ-824] as the compound, how does the “#Cases >70% cell death” value read?
**A.** 18

**Q.** How did the “#Cases >70% cell death” value turn out when `COc1cc([C@@H]2c3cc4c(cc3[C@H](O)[C@H]3COC(=O)[C@H]23)OCO4)cc(OC)c1OC` [PODOFILOX] was run?
**A.** 13

**Q.** For `CC[C@@H](C(=O)O)[C@@H]1O[C@@H]([C@@H](C)[C@H](O)[C@H](C)C(=O)[C@H](CC)[C@H]2O[C@]3(C=C[C@@H](O)[C@]4(CC[C@@](C)([C@H]5CC[C@](O)(CC)[C@H](C)O5)O4)O3)[C@H](C)C[C@@H]2C)[C@@H](C)C[C@@H]1C` [NARASIN], which “#Cases >70% cell death” value is on record?
**A.** 8

**Q.** Which “#Cases >70% cell death” value does the source give for `C[C@H]1C[C@@H]2[C@H]([C@@H](O)C[C@@]3(C)[C@H]2CC[C@]3(O)C(=O)CO)[C@@]2(C)C=CC(=O)C=C12` [METHYLPREDNISOLONE] here?
**A.** 1

**Q.** With `N=C(N)NC(=O)Cc1c(Cl)cccc1Cl` [GUANFACINE HCL] as the compound, how does the “#Cases >70% cell death” value read?
**A.** 1

**Q.** With `CC(=O)[C@]1(O)Cc2c(O)c3c(c(O)c2[C@@H](O[C@H]2C[C@H](N)[C@H](O)[C@H](C)O2)C1)C(=O)c1ccccc1C3=O` [IDARUBICIN] as the compound, how does the “#Cases >70% cell death” value read?
**A.** 18

**Q.** Which “#Cases >70% cell death” value does the source give for `CO[C@H]1C(=O)[C@]2(C)[C@@H](OC)C[C@H]3OC[C@@]3(OC(C)=O)[C@H]2[C@H](OC(=O)c2ccccc2)[C@]2(O)C[C@H](OC(=O)[C@H](O)[C@@H](NC(=O)OC(C)(C)C)c3ccccc3)C(C)=C1C2(C)C` [CABAZITAXEL] here?
**A.** 5

**Q.** With `CCCCC(CC)CNC(=N)NC(=N)NCCCCCCNC(=N)NC(=N)NCC(CC)CCCC` (stereo not shown) [ALEXIDINE] as the compound, how does the “#Cases >70% cell death” value read?
**A.** 18

**Q.** For `CC[C@H]1OC(=O)C[C@@H](O)[C@H](C)[C@@H](O[C@@H]2O[C@H](C)[C@@H](O[C@H]3C[C@@](C)(O)[C@@H](O)[C@H](C)O3)[C@H](N(C)C)[C@H]2O)[C@@H](CC=O)C[C@@H](C)C(=O)/C=C/C(C)=C/[C@@H]1CO[C@@H]1O[C@H](C)[C@@H](O)[C@@H](OC)[C@H]1OC` [TYLOSIN], which “#Cases >70% cell death” value is on record?
**A.** 1

**Q.** With `Clc1ccc(COC(Cn2ccnc2)c2ccc(Cl)cc2Cl)c(Cl)c1` (stereo not shown) [MICONAZOLE] as the compound, how does the “#Cases >70% cell death” value read?
**A.** 1

**Q.** For `Oc1c(I)cc(Cl)c2cccnc12` [CLIOQUINOL], which “#Cases >70% cell death” value is on record?
**A.** 6

**Q.** Which “#Cases >70% cell death” value does the source give for `Cc1nc2ccccc2n1Cc1ccc(Cl)cc1` [CHLORMIDAZOLE] here?
**A.** 1

**Q.** `Cc1ccc(C(=O)N(CCCN)[C@@H](c2nc3cc(Cl)ccc3c(=O)n2Cc2ccccc2)C(C)C)cc1` [ISPINESIB MESYLATE] was tested. Which “#Cases >70% cell death” value did it give?
**A.** 2

**Q.** With `C#Cc1cccc(Nc2ncnc3cc(OCCOC)c(OCCO)cc23)c1` [OSI-420] as the compound, how does the “#Cases >70% cell death” value read?
**A.** 3

**Q.** For AZD-1152, which “#Cases >70% cell death” value is on record?
**A.** 5

**Q.** How did the “#Cases >70% cell death” value turn out when `CC(=O)[C@@]1(O)CC[C@H]2[C@@H]3C[C@H](C)C4=CC(=O)C=C[C@]4(C)[C@@]3(F)[C@@H](O)C[C@@]21C` [FLUOROMETHOLONE] was run?
**A.** 2

**Q.** Which “#Cases >70% cell death” value does the source give for ARSENIC TRIOXIDE DIETHANOLAMINE SALT here?
**A.** 16

**Q.** How did the “#Cases >70% cell death” value turn out when `COc1ccc(CCN2CCC(Nc3nc4ccccc4n3Cc3ccc(F)cc3)CC2)cc1` [ASTEMIZOLE] was run?
**A.** 7

**Q.** Which “#Cases >70% cell death” value does the source give for `CC(=O)[C@@]1(O)CC[C@H]2[C@@H]3CCC4=CC(=O)CC[C@]4(C)[C@H]3CC[C@@]21C` [HYDROXYPROGESTERONE] here?
**A.** 2

**Q.** For `CN1CCN(c2ccc3nc(-c4c(N)c5c(F)cccc5[nH]c4=O)[nH]c3c2)CC1` [GFKI-258], which “#Cases >70% cell death” value is on record?
**A.** 16

**Q.** Which “#Cases >70% cell death” value does the source give for `CCNC1=Nc2ccc(Cl)cc2C(C)(c2ccccc2)O1` (stereo not shown) [ETIFOXINE] here?
**A.** 4

**Q.** With `Clc1ccc(Cn2c(CN3CCCC3)nc3ccccc32)cc1` [CLEMIZOLE HYDROCHLORIDE] as the compound, how does the “#Cases >70% cell death” value read?
**A.** 1

**Q.** For `FC(F)(F)c1ccc(/C=C/c2nc(COc3ccc(CCCCn4ccnn4)cc3)co2)cc1` [MUBRITINIB], which “#Cases >70% cell death” value is on record?
**A.** 1

**Q.** For `NC(=O)Nc1cc(-c2cccc(F)c2)sc1C(=O)N[C@H]1CCCNC1` [AZD-7762], which “#Cases >70% cell death” value is on record?
**A.** 14

**Q.** How did the “#Cases >70% cell death” value turn out when `CCC1=C[C@@H]2CN(CCc3c([nH]c4ccccc34)[C@@](C(=O)OC)(c3cc4c(cc3OC)N(C)[C@H]3[C@@](O)(C(=O)OC)[C@H](OC(C)=O)[C@]5(CC)C=CCN6CC[C@]43[C@@H]65)C2)C1` [ANHYDROVINBLASTINE] was run?
**A.** 5

**Q.** How did the “#Cases >70% cell death” value turn out when `CC(=O)[C@@]1(O)CC[C@H]2[C@@H]3C=C(Cl)C4=CC(=O)[C@@H]5C[C@@H]5[C@]4(C)[C@H]3CC[C@@]21C` [CYPROTERONE] was run?
**A.** 1

**Q.** How did the “#Cases >70% cell death” value turn out when `CC(=O)Nc1ccc([C@H](C)C(=O)Nc2ncc(C(C)C)s2)cc1` [PHA-690509] was run?
**A.** 11
